Values quoted from earlier work, collected in US11220552B2, “Anti-CD20 combinations for treating tumors” (BIRDIE BIOPHARMACEUTICALS, INC., priority 2016, dated 2022).

Columns and labels:
[1] = system: rituximab-sensitive and resistant cells
CD20 = biological target: T1, CD20 (Homo sapiens, UniProt P11836); conditions: Asp101 instead of Asn101 in CDR3 of variable heavy chain, versus rituximab CDRs
T1 sequence (P11836 1-297): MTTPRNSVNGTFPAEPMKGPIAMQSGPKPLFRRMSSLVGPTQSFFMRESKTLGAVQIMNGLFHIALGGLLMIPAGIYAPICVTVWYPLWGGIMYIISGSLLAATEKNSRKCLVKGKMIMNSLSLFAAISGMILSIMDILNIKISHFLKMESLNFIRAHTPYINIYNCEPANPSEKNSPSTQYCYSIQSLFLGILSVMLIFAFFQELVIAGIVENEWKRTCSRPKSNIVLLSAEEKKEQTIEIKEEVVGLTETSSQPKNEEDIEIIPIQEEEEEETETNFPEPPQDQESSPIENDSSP

[2] = system: three human lymphoma cell lines

## GA101: fully humanized, type II, glycoengineered IgG1 anti-CD20 mAb (Glycart/Roche)
[1]; rituximab-resistant cell lines
  activity in rituximab-resistant cell lines: activity

## Ofatumumab: fully human type I anti-CD20 IgG1kappa mAb (Genmab)
[1]; both rituximab-sensitive and resistant cells
  potency compared with rituximab: more potent than rituximab

## Ocrelizumab: type I second generation humanized anti-CD20 mAb (Genentech/Roche/Biogen)
Lymphoid malignancies
  ADCC activity compared with rituximab: increased
  CDC activity compared with rituximab: lower

## Veltuzumab: humanized, type I anti-CD20 IgG1 mAb with CDRs identical to rituximab except Asp101 instead of Asn101
CD20
  off-rates: significantly slower
[2]
  CDC cytotoxicity: increased
